Inconclusive results and toxic doses are left out. Square brackets hold non-standard residues; d marks the D form. Peptide text beside a SMILES is read from it. * marks the point of attachment. ξ: configuration not given here. ξV = CC(C)C(N)C(=O)O; ClAc = O=C(CCl)*
System: L1210 leukemia ip in BDF1 mice, survival T/C
Assay: NCI In Vivo Anticancer Drug Screen. Data for tumor model L1210 Leukemia (intraperitoneal) in B6D2F1 (BDF1) mice
Settings: endpoint: mean survival time, higher = longer survival
How it was run: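 Transplantable tumor model; survival measured in treated vs vehicle control mice. Value = treated/control.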

[1] = dose: 100.0 mg/kg/injection, schedule: Q04DX002 (ip), vehicle: Klucel (hydroxypropylcellulose) (HPC)
[2] = dose: 200.0 mg/kg/injection, schedule: Q04DX002 (ip), vehicle: Klucel (hydroxypropylcellulose) (HPC)
[3] = dose: 100.0 mg/kg/injection, schedule: Q04DX003 (ip), vehicle: saline
[4] = dose: 200.0 mg/kg/injection, schedule: Q04DX003 (ip), vehicle: saline
[5] = dose: 400.0 mg/kg/injection, schedule: Q04DX003 (ip), vehicle: saline
[6] = dose: 50.0 mg/kg/injection, schedule: Q01DX009 (ip), vehicle: saline with Tween-80
[7] = dose: 100.0 mg/kg/injection, schedule: Q01DX009 (ip), vehicle: saline with Tween-80
[8] = dose: 100.0 mg/kg/injection, schedule: Q04DX003 (ip), vehicle: saline with Tween-80
[9] = dose: 200.0 mg/kg/injection, schedule: Q01DX009 (ip), vehicle: saline with Tween-80
[10] = dose: 200.0 mg/kg/injection, schedule: Q04DX003 (ip), vehicle: saline with Tween-80
[11] = dose: 400.0 mg/kg/injection, schedule: Q04DX003 (ip), vehicle: saline with Tween-80
[12] = dose: 100.0 mg/kg/injection, schedule: Q01DX001 (ip), vehicle: saline
[13] = dose: 200.0 mg/kg/injection, schedule: Q01DX001 (ip), vehicle: saline
[14] = dose: 400.0 mg/kg/injection, schedule: Q01DX001 (ip), vehicle: saline
[15] = dose: 100.0 mg/kg/injection, schedule: Q04DX003 (ip), vehicle: Klucel (hydroxypropylcellulose) (HPC)
[16] = dose: 200.0 mg/kg/injection, schedule: Q04DX003 (ip), vehicle: Klucel (hydroxypropylcellulose) (HPC)
[17] = dose: 400.0 mg/kg/injection, schedule: Q04DX003 (ip), vehicle: Klucel (hydroxypropylcellulose) (HPC)

COc1cc2c(c(-c3c(O)c(OC)cc4c3CC[n+]3cc5c(OC)c(OC)ccc5cc3-4)c1O)CC[n+]1cc3c(OC)c(OC)ccc3cc1-2
T/C (dose: 50.0 mg/kg/injection, schedule: Q04DX002 (ip), vehicle: Klucel (hydroxypropylcellulose) (HPC)): 100 % of control
T/C [1]: 108 % of control
T/C [2]: 100 % of control

COC(=O)C(CCSC)NC(=O)C1CSC(C)(C)N1C=O (stereo not given)
T/C [3]: 97 % of control
T/C [4]: 97 % of control
T/C [5]: 101 % of control

O=NN(CCF)C(=O)NC12CC3CC(CC(C3)C1)C2
T/C (dose: 40.0 mg/kg/injection, schedule: Q01DX001 (ip), vehicle: carboxymethylcellulose (CMC)): 124 % of control
T/C (dose: 60.0 mg/kg/injection, schedule: Q01DX001 (ip), vehicle: carboxymethylcellulose (CMC)): 190 % of control
T/C (dose: 93.0 mg/kg/injection, schedule: Q01DX001 (ip), vehicle: carboxymethylcellulose (CMC)): 192 % of control
T/C (dose: 187.0 mg/kg/injection, schedule: Q01DX001 (ip), vehicle: carboxymethylcellulose (CMC)): 259 % of control

CCN(CC)CC(=O)Nc1cccc2c1C(=O)c1c(c(O)c3ccccc3c1O)C2=O
T/C [6]: 94 % of control
T/C [7]: 103 % of control
T/C [8]: 101 % of control
T/C [9]: 98 % of control
T/C [10]: 155 % of control
T/C [11]: 102 % of control

Cc1c2ccnc(-c3ccc(F)cc3)c2cc2c1[nH]c1ccccc12
T/C (dose: 16.0 mg/kg/injection, schedule: Q01DX005 (ip), vehicle: saline): 100 % of control
T/C (dose: 32.0 mg/kg/injection, schedule: Q01DX005 (ip), vehicle: saline): 100 % of control
T/C (dose: 64.0 mg/kg/injection, schedule: Q01DX005 (ip), vehicle: saline): 105 % of control
T/C (dose: 128.0 mg/kg/injection, schedule: Q01DX005 (ip), vehicle: saline): 103 % of control

CCOC(=O)C1CCC(=O)O1 (stereo not given)
T/C (dose: 100.0 mg/kg/injection, schedule: Q04DX002 (ip), vehicle: saline): 104 % of control
T/C (dose: 200.0 mg/kg/injection, schedule: Q04DX002 (ip), vehicle: saline): 101 % of control
T/C (dose: 400.0 mg/kg/injection, schedule: Q04DX002 (ip), vehicle: saline): 97 % of control

C=CCSc1n[nH]c(=O)[nH]c1=O
T/C [12]: 111 % of control
T/C [13]: 92 % of control
T/C [14]: 103 % of control

CC(C)C(NC(=O)CNC(=O)CCl)C(=O)O (stereo not given) (ClAc-Gly-[ξV]-OH)
T/C [8]: 101 % of control
T/C [10]: 101 % of control

C[n+]1cccc(C(=O)N/N=C/CCc2ccccc2)c1
T/C (dose: 25.0 mg/kg/injection, schedule: Q04DX003 (ip), vehicle: saline with Tween-80): 95 % of control
T/C (dose: 50.0 mg/kg/injection, schedule: Q01DX001 (ip), vehicle: saline with Tween-80): 101 % of control
T/C [6]: 120 % of control
T/C (dose: 50.0 mg/kg/injection, schedule: Q04DX003 (ip), vehicle: saline with Tween-80): 90 % of control
T/C (dose: 100.0 mg/kg/injection, schedule: Q01DX001 (ip), vehicle: saline with Tween-80): 103 % of control
T/C [7]: 106 % of control
T/C [8]: 92 % of control
T/C (dose: 200.0 mg/kg/injection, schedule: Q01DX001 (ip), vehicle: saline with Tween-80): 97 % of control
T/C [9]: 95 % of control
T/C [10]: 94 % of control
T/C (dose: 400.0 mg/kg/injection, schedule: Q01DX001 (ip), vehicle: saline with Tween-80): 101 % of control

COc1ccc(C(C)c2ccccc2)cc1 (stereo not given)
T/C [8]: 98 % of control
T/C [10]: 95 % of control
T/C [11]: 93 % of control

CCC(NC(=O)c1cnc2ccccc2n1)C(=O)O (stereo not given)
T/C [3]: 101 % of control
T/C [4]: 92 % of control
T/C [5]: 90 % of control

Cc1ccc(C)c(S(=O)(=O)OCC2CO2)c1 (stereo not given)
T/C [8]: 104 % of control
T/C [10]: 101 % of control
T/C [11]: 101 % of control

O=C(NCc1cccc2ccccc12)Nc1ccccc1Cl
T/C [1]: 100 % of control
T/C [2]: 104 % of control
T/C (dose: 400.0 mg/kg/injection, schedule: Q04DX002 (ip), vehicle: Klucel (hydroxypropylcellulose) (HPC)): 96 % of control

CCN(CC)c1ccccc1S(=O)(=O)O
T/C [12]: 104 % of control
T/C [13]: 95 % of control
T/C [14]: 98 % of control

C1CN(CC2COC(CN3CCOCC3)CO2)CCO1 (stereo not given)
T/C [3]: 106 % of control
T/C [4]: 97 % of control
T/C [5]: 98 % of control

O=C(CCl)OC(=O)C(Cl)(Cl)Cl
T/C [3]: 102 % of control
T/C [4]: 96 % of control

O=C1c2cccc([N+](=O)[O-])c2C(=O)c2c1cccc2[N+](=O)[O-]
T/C (dose: 100.0 mg/kg/injection, schedule: Q04DX002 (ip), vehicle: saline with Tween-80): 93 % of control
T/C (dose: 200.0 mg/kg/injection, schedule: Q04DX002 (ip), vehicle: saline with Tween-80): 104 % of control
T/C (dose: 400.0 mg/kg/injection, schedule: Q04DX002 (ip), vehicle: saline with Tween-80): 100 % of control

Cn1ncc2ccccc2c1=O
T/C (dose: 50.0 mg/kg/injection, schedule: Q04DX003 (ip), vehicle: Klucel (hydroxypropylcellulose) (HPC)): 100 % of control
T/C [15]: 100 % of control
T/C [16]: 106 % of control
T/C [17]: 110 % of control

COc1ccc(OC)c(NC(=O)Oc2ccc(Cl)c(C)c2)c1
T/C [8]: 90 % of control
T/C [10]: 87 % of control
T/C [11]: 93 % of control

CCCCCCCCCCCCCCCCOc1ccc(OC)cc1
T/C [15]: 102 % of control
T/C [16]: 92 % of control
T/C [17]: 92 % of control

CC(=O)N1CCC(CC2CCCCC2)CC1
T/C (dose: 12.5 mg/kg/injection, schedule: Q04DX003 (ip), vehicle: saline): 97 % of control
T/C (dose: 25.0 mg/kg/injection, schedule: Q04DX003 (ip), vehicle: saline): 100 % of control
T/C (dose: 50.0 mg/kg/injection, schedule: Q04DX003 (ip), vehicle: saline): 100 % of control

O=C(c1cccc2ccccc12)N(c1ccccc1)c1ccccc1
T/C [15]: 103 % of control

CN(C)c1ccc(P(=O)(c2ccc(N(C)C)cc2)c2ccc(N(C)C)cc2)cc1.CN(C)c1ccc(P(=O)(c2ccc(N(C)C)cc2)c2ccc(N(C)C)cc2)cc1.[Cl][Sn]([Cl])([Cl])[Cl]
T/C (dose: 50.0 mg/kg/injection, schedule: Q01DX009 (ip), vehicle: Klucel (hydroxypropylcellulose) (HPC)): 87 % of control
T/C (dose: 100.0 mg/kg/injection, schedule: Q01DX009 (ip), vehicle: Klucel (hydroxypropylcellulose) (HPC)): 91 % of control
T/C (dose: 200.0 mg/kg/injection, schedule: Q01DX009 (ip), vehicle: Klucel (hydroxypropylcellulose) (HPC)): 94 % of control

COC(=O)C(Br)c1cccc(OC)c1 (stereo not given)
T/C (dose: 100.0 mg/kg/injection, schedule: Q01DX009 (ip), vehicle: saline sonified): 100 % of control
T/C (dose: 100.0 mg/kg/injection, schedule: Q04DX003 (ip), vehicle: saline sonified): 97 % of control
T/C (dose: 200.0 mg/kg/injection, schedule: Q01DX009 (ip), vehicle: saline sonified): 120 % of control
T/C (dose: 200.0 mg/kg/injection, schedule: Q04DX003 (ip), vehicle: saline sonified): 101 % of control
T/C (dose: 400.0 mg/kg/injection, schedule: Q01DX009 (ip), vehicle: saline sonified): 105 % of control
T/C (dose: 400.0 mg/kg/injection, schedule: Q04DX003 (ip), vehicle: saline sonified): 101 % of control

— PubChem BioAssay AID248 (DTP/NCI, 2004)
